Data set [1] in a line: Tissue distribution of cephapirin activity after intravenous administration (agar well diffusion bioassay). The note with it: 200 mg/kg intravenous; for concentration at 1 h / concentration at 3 h / concentration at 7 h / concentration at 10 h / concentration at 24 h: mouse. It counts as in vivo, mice. The protocol: (§1) The antibacterial activity was measured by an agar well diffusion bioassay, though other assays for antibacterial activity or chemical, or immunological assays for the drug substance are known to those skilled in the art. Briefly, the agar well diffusion bioassay used here were performed by cutting wells into an agar such as Trypticaso Soy Agar (Difco., Detroit, MI) that were previously seeded with a test bacteria such as Bacillus subtilis (ATCC #6633). The wells were filled with a small amount of test material here about 50ul of the test sample, and the agar plates were incubated. Bacillus subtilis incubation was for about 16-24 hours at about 35°C. Growth of a bacterial "lawn" around the well was inhibited by antibiotic present in the agar as diffused from the test sample. The diameters of the zones of inhibited growth around the wells were proportional to the concentration of antibiotic in the test sample and were quantitated by comparison with known, standard antibiotic solutions.

Data set [2] is described as follows: Serum levels of cephapirin activity after subcutaneous or intravenous administration. It counts as in vivo, mice. As for the experimental part: as §1
Cephapirin activity in the serum of mice was determined at intervals after subcutaneous or intravenous administration of free or complexed drug. […] Maximal activity was found in the serum of mice given free cephapirin (by either route) at the earliest time points examined (one half to one hour post-injection). […] With a 200 mg/kg dose, serum levels were 10 ug/ml or greater for 24 hours after injection. […]

Data set [3] relates to S. aureus (ATCC #29740). Briefly: In vitro minimal inhibitory concentration by micro-titer dilution method. The note with it: Staphylococcus aureus, ATCC29740. It counts as cell-based.
The subject of data set [4] is S. aureus (ATCC #29740). Put plainly: Staphylococcal Abscess Model. It counts as in vivo, Mice (out-bred CD-1 males). The note with it: single dose (200 mg/kg). The protocol:
Staphylococcal Abscess Model. S. aureus (ATCC #29740) was grown overnight at 30°C in trypticase soy broth. Aliquots of this suspension were frozen at -70°C. […] For use, cultures were thawed and diluted with saline to contain the desired number of colony forming units (CFU) per ml. Mice (out-bred CD-1 males) were injected subcutaneously with 0.1 ml of S. aureus suspension in the abdominal area. Treatment with free or encapsulated drug was given before or after infection. At four days after infection, mice were killed by cervical dislocation, the abscesses were carefully dissected out and their diameters measured.
To determine the effect of treatment on abscess development, mice were given a single intravenous or subcutaneous injection of free or complexed cephapirin at various times before or after injection.

Another data set has as its system S. aureus. Put plainly: Staphylococcal Septicemia Model. The note with it: for % Survival at 72 hours: 10 mice. It counts as in vivo, Mice. As for the experimental part:
Staphylococcal Septicemia Model. The S. aureus inoculum was prepared as for the abscess model. Mice were inoculated intraperitoneally with 2 x 10⁸ CFU in 5% hog/mucin. Treatment was given before or after infection. […]
The effect of free and CHStris cephalosporin:lipid complex cephapirin was compared in an acute staphylococcus septicemia model.

The subject of data set [5] is S. typhimurium (ATCC #14028). Briefly: Salmonella typhimurium Septicemia Model. It counts as in vivo, Mice. The note with it: 700 CFU intravenously; treatment on days 2 and 4 post-inoculation; groups of 10. The protocol:
Salmonella typhimurium Septicemia Model: S. typhimurium (ATCC #14028) was grown in trypticase soy broth at 35°C overnight. Aliquots of this suspension were frozen and maintained at -70°C. For use, cultures were thawed and diluted to contain 700 CFU/ml in 0.9% saline. Mice were inoculated intravenously (0.1 ml) via the lateral tail vein. Treatment was given at various times after infection. Mortality was monitored daily for two weeks.
Mice (in groups of 10) that were inoculated intravenously with 700 CFU of S. typhimurium and received no treatment died within 6-8 days after infection (Fig. 11). […] In this case, the cephalosporin:lipid complex preparation was not washed so that 30% of the administered dose was encapsulated.

A further data set in a line: in vivo. The note with it: mouse, iv, 924 mg/kg.
The nature of data set [6]: Serum levels of cefazolin after a single intravenous dose. It counts as in vivo, mice. As for the experimental part:
as §1
Both cephapirin and cefazolin display prolonged activity in serum and activity at a higher level by the cephalosporin:lipid complex preparation as compared to the free drug. […] Extended prophylactic activity in the serum can also be achieved by subcutaneous administration of a cephalosporin:lipid complex antibiotic.
Intravenous injection of a single 100mg/kg dose of free cefazolin dosium in mice results in a mean serum concentration of 8 to 20ug/ml at one hour post dose (Fig. 9).

Data set [7] has as its system many susceptible organisms. The note with it: for many susceptible organisms; cited from earlier work.

Results on three compounds are retold here after patent EP0414806B1, “HIGH RATIO ACTIVE AGENT:LIPID COMPLEX” (THE LIPOSOME COMPANY, INC., priority 1988, dated 1989).

Experimental for in vivo: Contrast agents were tested in mice by injecting a single intravenous dose of free or complexed contrast agent (diatrizoate) via the tail vein. […] The specific activity of the doses were about 10000 c/mg I.

As for `CC(=O)OCC1=C(C(=O)O)N2C(=O)[C@@H](NC(=O)CSc3ccncc3)[C@H]2SC1` [Free Cephapirin, cephapirin sodium], the activity in tissues entry in [1] (at 3 hours or later) is on record as “No activity was detected”. Also, the concentration at 1 h was 49000 ± 8000 ng/g in data set [1] (KIDNEY, time 1 (hours after injection), mean of 3 to 5 mice ± S.E.M.); 46000 ± 12000 ng/g in [1] (LIVER, time 1, mean ± S.E.M.); less than 500 ng/g in data set [1] (SPLEEN, time 1, mean ± S.E.M.). Moreover, the concentration at 3 h is less than 500 ng/g in data set [1] (KIDNEY, mean ± S.E.M.); less than 500 ng/g in data set [1] (LIVER, mean ± S.E.M.); less than 500 ng/g in [1] (SPLEEN, mean ± S.E.M.). Also, the concentration at 7 h in data set [1] (KIDNEY, mean ± S.E.M.) was less than 500 ng/g; in [1] (LIVER, mean ± S.E.M.) it was less than 500 ng/g; in [1] (SPLEEN, mean ± S.E.M.), less than 500 ng/g. In addition, the concentration at 10 h is less than 500 ng/g in [1] (KIDNEY, mean ± S.E.M.); less than 500 ng/g in data set [1] (LIVER, mean ± S.E.M.); less than 500 ng/g in data set [1] (SPLEEN, mean ± S.E.M.). Besides, the concentration at 24 h in [1] (KIDNEY, mean ± S.E.M.) is less than 500 ng/g; in data set [1] (LIVER, mean ± S.E.M.), less than 500 ng/g; in data set [1] (SPLEEN, mean ± S.E.M.), less than 500 ng/g. Further, in [2] (at 3 hours or later), the “activity in the serum” value is “no activity was detectable”. The “half-life of free drug” value in data set [2] (serum, both intravenous and sub-cutaneous administration, estimated) was “approximately 20 minutes”. The MIC (usually the lowest concentration that inhibits growth of the organism) against S. aureus (ATCC #29740) [3] is 0.05 to 0.1 µg/mL. For the same compound, the “effect on abscess size” value is recorded as “no effect on abscess size” in the data set on S. aureus (ATCC #29740) [4] (four hours before infection (complex: up to four hours before)), “significantly reduces or prevents abscess development” in the data set with S. aureus (ATCC #29740) [4] (one hour after infection) and “reduced abscess size slightly” with S. aureus (ATCC #29740) [4] (one hour before infection). Also, the “% Survival at 72 hours” value stood at 100% in the data set with S. aureus (treated subcutaneously -1 hour, 50 mg/kg); 100% in the data set with S. aureus (treated subcutaneously -1 hour, 100 mg/kg); 100% with S. aureus (treated subcutaneously -1 hour, 200 mg/kg); 0% in the data set on S. aureus (treated subcutaneously -4 hour, 50 mg/kg); 10% in the data set with S. aureus (treated subcutaneously -4 hour, 100 mg/kg); 0% with S. aureus (treated subcutaneously -4 hour, 200 mg/kg). For the same compound, the survival result with S. aureus (treated subcutaneously at one hour before infection, end of the experiment (14 days)) is “survived until the end of the experiment”; in the data set on S. aureus (treatment at four hours before infection), “no effect on survival”; in [5], “did not prolong survival”.
As for `CC(=O)Nc1c(I)c(NC(C)=O)c(I)c(C(=O)O)c1I` [free diatrizoate, diatrizoate], in “in vivo”, the concentration at 0.5 h came to 2.8e+06 ng/g, the concentration at 1 h was 800000 ng/g and the concentration at 1.5 h worked out at 300000 ng/g.
cefazolin sodium [free cefazolin] had a mean serum concentration in data set [6] (mouse, in vivo, iv, 100 mg/kg, 1 h) of 8000 to 20000 ng/mL. In data set [6] (mouse, in vivo, iv, 100 mg/kg, 2 h), the serum level entry is listed as “approximately 2 ug/ml”. In addition, the serum level entry in data set [6] (single 100mg/kg intravenous dose, at 3 hours after administration) is listed as “below the level of detection”. For the same compound, in [7], the MICp result is reported as “about 0.5 ug (base weight)/ml (plasma or serum)” and the MICt result is on record as “about 0.5 ug (base weight)/mg (spleen)”.
